Experimental data as given in patent US10487068B2, “Pyridazine derivatives as RORc modulators” (Genentech, Inc., priority 2015, dated 2019).

Target: T1, RORc ligand binding domain (Homo sapiens, UniProt P51449)
T1 sequence (P51449 269-508 limits assumed): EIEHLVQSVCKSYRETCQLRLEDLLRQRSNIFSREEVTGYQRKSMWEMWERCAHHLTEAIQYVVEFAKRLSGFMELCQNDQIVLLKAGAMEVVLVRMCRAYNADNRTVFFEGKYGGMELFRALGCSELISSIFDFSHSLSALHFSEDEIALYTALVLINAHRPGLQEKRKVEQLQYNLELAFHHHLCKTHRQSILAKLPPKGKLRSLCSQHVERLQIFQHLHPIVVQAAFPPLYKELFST
Assay: In Vitro RORc Ligand Binding Assay
Settings: RORc IC50, radioligand 25-[3H]hydroxycholesterol 6 nM; 0.6 ug/mL RORc receptor; 3 h at 25° C.

Row | IC50 [nM] | Structure (SMILES)
1 | 117 | CC1(C)[C@H]2CC[C@]1(c1nccc(C(=O)NCCO)n1)c1nnc(-c3c(F)cccc3F)cc12 [Example 95, 2-((5R,8R)-3-(2,6-difluorophenyl)-9,9-dimethyl-5,6,7,8-tetrahydro-5,8-methanocinnolin-8-yl)-N-(2-hydroxyethyl)pyrimidine-4-carboxamide]
2 | 34.3 | CC1(C)[C@H]2CC[C@]1(c1cccc(C(=O)Nc3c[nH]c(=O)cn3)n1)c1nnc(-c3c(F)cccc3F)cc12 [Example 96, 6-((5R,8S)-3-(2,6-difluorophenyl)-9,9-dimethyl-5,6,7,8-tetrahydro-5,8-methanocinnolin-8-yl)-N-(5-oxo-4,5-dihydropyrazin-2-yl)picolinamide]
3 | 98.3 | CC1(C)[C@H]2CC[C@]1(c1nccc(NCCO)n1)c1nnc(-c3c(F)cccc3F)cc12 [Example 97, 2-((2-((5R,8R)-3-(2,6-difluorophenyl)-9,9-dimethyl-5,6,7,8-tetrahydro-5,8-methanocinnolin-8-yl)pyrimidin-4-yl)amino)ethanol]
4 | 15.4 | CC1(C)[C@H]2CC[C@]1(c1ccnc(NCCO)n1)c1nnc(-c3c(F)cccc3F)cc12 [Example 98]
5 | 40.9 | CC1(C)[C@@H]2CC[C@@]1(c1cccc(C(=O)NCCO)n1)c1nnc(-c3c(F)cccc3F)cc12 [Example 99, 6-((5S,8R)-3-(2,6-difluorophenyl)-9,9-dimethyl-5,6,7,8-tetrahydro-5,8-methanocinnolin-8-yl)-N-(2-hydroxyethyl)picolinamide]
6 | 41.3 | C[C@H](O)CNC(=O)c1cccc([C@]23CC[C@H](c4cc(-c5c(F)cccc5F)nnc42)C3(C)C)n1 [Example 100, 6-((5S,8R)-3-(2,6-difluorophenyl)-9,9-dimethyl-5,6,7,8-tetrahydro-5,8-methanocinnolin-8-yl)-N-((S)-2-hydroxypropyl)picolinamide]
7 | 21.9 | CC(=O)Nc1cccc([C@@]23CC[C@@H](c4cc(-c5c(F)cccc5F)nnc42)C3(C)C)n1 [Example 101, N-(6-((5R,8S)-3-(2,6-difluorophenyl)-9,9-dimethyl-5,6,7,8-tetrahydro-5,8-methanocinnolin-8-yl)pyridin-2-yl)acetamide]
8 | 21.6 | Cc1nnc(-c2cccc([C@@]34CC[C@@H](c5cc(-c6c(F)cccc6F)nnc53)C4(C)C)n2)o1 [Example 102, 2-(6-((5R,8S)-3-(2,6-difluorophenyl)-9,9-dimethyl-5,6,7,8-tetrahydro-5,8-methanocinnolin-8-yl)pyridin-2-yl)-5-methyl-1,3,4-oxadiazole]
9 | 29.1 | CC1(C)[C@H]2CC[C@]1(c1cncc(NC(=O)C3COC3)n1)c1nnc(-c3c(F)cccc3F)cc12 [Example 103, N-(6-((5R,8S)-3-(2,6-difluorophenyl)-9,9-dimethyl-5,6,7,8-tetrahydro-5,8-methanocinnolin-8-yl)pyrazin-2-yl)oxetane-3-carboxamide]
10 | 25.9 | CC1(C)[C@H]2CC[C@]1(c1cncc(-c3nnc[nH]3)n1)c1nnc(-c3c(F)cccc3F)cc12 [Example 104]
11 | 30.9 | Cc1nnc(-c2cncc([C@@]34CC[C@@H](c5cc(-c6c(F)cccc6F)nnc53)C4(C)C)n2)[nH]1 [Example 105]
12 | 31.1 | CC1(C)[C@H]2CC[C@]1(c1cncc(C(=O)NCC3(O)COC3)n1)c1nnc(-c3c(F)cccc3F)cc12 [Example 106, 6-((5R,8S)-3-(2,6-difluorophenyl)-9,9-dimethyl-5,6,7,8-tetrahydro-5,8-methanocinnolin-8-yl)-N-((3-hydroxyoxetan-3-yl)methyl)pyrazine-2-carboxamide]
13 | 69.5 | CC1(C)[C@H]2CC[C@]1(c1cncc(C(=O)NC[C@@H](O)CO)n1)c1nnc(-c3c(F)cccc3F)cc12 [Example 107, 6-((5R,8S)-3-(2,6-difluorophenyl)-9,9-dimethyl-5,6,7,8-tetrahydro-5,8-methanocinnolin-8-yl)-N-((R)-2,3-dihydroxypropyl)pyrazine-2-carboxamide]
14 | 47.5 | CC1(C)[C@H]2CC[C@]1(c1cncc(C(=O)NC[C@H](O)CO)n1)c1nnc(-c3c(F)cccc3F)cc12 [Example 108, 6-((5R,8S)-3-(2,6-difluorophenyl)-9,9-dimethyl-5,6,7,8-tetrahydro-5,8-methanocinnolin-8-yl)-N-((S)-2,3-dihydroxypropyl)pyrazine-2-carboxamide]
15 | 19.8 | C[C@@H](O)CNC(=O)c1cncc([C@]23CC[C@H](c4cc(-c5c(F)cccc5F)nnc42)C3(C)C)n1 [Example 109, 6-((5S,8R)-3-(2,6-difluorophenyl)-9,9-dimethyl-5,6,7,8-tetrahydro-5,8-methanocinnolin-8-yl)-N-((R)-2-hydroxypropyl)pyrazine-2-carboxamide]
16 | 51.4 | CC1(C)[C@H]2CC[C@]1(c1cncc(C(=O)NCCS(C)(=O)=O)n1)c1nnc(-c3c(F)cccc3F)cc12 [Example 110, 6-((5R,8S)-3-(2,6-difluorophenyl)-9.9-dimethyl-5,6,7,8-tetrahydro-5,8-methanocinnolin-8-yl)-N-(2-(methylsulfonyl)ethyl)pyrazine-2-carboxamide]
17 | 41.4 | CC1(C)[C@H]2CC[C@]1(c1ccnc(NS(C)(=O)=O)n1)c1nnc(-c3c(F)cccc3F)cc12 [Example 111]
18 | 13.7 | CC1(C)[C@H]2CC[C@]1(c1cccc(NC(=O)CO)n1)c1nnc(-c3c(F)cccc3F)cc12 [Example 112, N-(6-((5R,8S)-3-(2,6-difluorophenyl)-9,9-dimethyl-5,6,7,8-tetrahydro-5,8-methanocinnolin-8-yl)pyridin-2-yl)-2-hydroxyacetamide]
19 | 27.6 | CC1(C)[C@H]2CC[C@]1(c1ccnc(C(N)=O)n1)c1nnc(-c3c(F)cccc3F)cc12 [Example 113]
20 | 38.8 | C[C@H](O)CNC(=O)c1nccc([C@@]23CC[C@@H](c4cc(-c5c(F)cccc5F)nnc42)C3(C)C)n1 [Example 114]
21 | 63.2 | C[C@@H](O)CNC(=O)c1nccc([C@@]23CC[C@@H](c4cc(-c5c(F)cccc5F)nnc42)C3(C)C)n1 [Example 115]
22 | 15.2 | CC1(C)[C@H]2CC[C@]1(c1cccc(CNC(=O)CO)n1)c1nnc(-c3c(F)cccc3F)cc12 [Example 116, N-((6-((5R,8S)-3-(2,6-difluorophenyl)-9,9-dimethyl-5,6,7,8-tetrahydro-5,8-methanocinnolin-8-yl)pyridin-2-yl)methyl)-2-hydroxyacetamide]
23 | 7.6 | Cc1coc(-c2cncc([C@@]34CC[C@@H](c5cc(-c6c(F)cccc6F)nnc53)C4(C)C)n2)n1 [Example 117, 2-(6-((5R,8S)-3-(2,6-difluorophenyl)-9,9-dimethyl-5,6,7,8-tetrahydro-5,8-methanocinnolin-8-yl)pyrazin-2-yl)-4-methyloxazole]
24 | 13 | Cc1ncc(-c2cncc([C@@]34CC[C@@H](c5cc(-c6c(F)cccc6F)nnc53)C4(C)C)n2)o1 [Example 118, 5-(6-((5R,8S)-3-(2,6-difluorophenyl)-9,9-dimethyl-5,6,7,8-tetrahydro-5,8-methanocinnolin-8-yl)pyrazin-2-yl)-2-methyloxazole]
25 | 58.9 | CC1(C)[C@H]2CC[C@]1(c1cncc(C(=O)NC(CO)CO)n1)c1nnc(-c3c(F)cccc3F)cc12 [Example 119, 6-((5R,8S)-3-(2,6-difluorophenyl)-9,9-dimethyl-5,6,7,8-tetrahydro-5,8-methanocinnolin-8-yl)-N-(1,3-dihydroxypropan-2-yl)pyrazine-2-carboxamide]
